The values below come from patent US20250034135A1, “ANTI-APOPTOTIC PROTEIN BCL-2 INHIBITOR, PHARMACEUTICAL COMPOSITION AND USES THEREOF” (HANGZHOU HEALZEN THERAPEUTICS CO., LTD., priority 2021, published 2025).

Structures are written as SMILES. Read-outs that look alike come from different tables or passages of the source. Bounds are passed on as bounds.

In one data set the target is BCL2 (G101V) (Homo sapiens (Human), UniProt P10415, G101V). The data set can be described thus: Molecular level activity test of anti-apoptotic protein BCL2 (G101V) (HTRF, binding to Bim peptide). The following applies: inhibition of BCL2 (G101V) binding to Bim peptide, read-out: BCL-2 (G101V). Put shortly: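 His-tagged recombinant BCL2 (G101V) incubated 1 h with biotin-BIM peptide and compound (2% DMSO), then anti-His and streptavidin-XL665 detection reagents added for 4 h at room temperature. HTRF signal reflects compound effect on BCL2–BIM binding.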
On the technique in general: In TR-FRET formats the signal depends on donor and acceptor labels being close together.

In the next data set the target is BCL2 (D103Y) (Homo sapiens (Human), UniProt P10415, D103Y). Description: Molecular level activity test of BCL2 (D103Y) (HTRF, binding to Bim peptide). Conditions: read-out: BCL-2 (D103Y) (nM) (inhibitory activity, IC50). The procedure, abridged:
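His-tagged recombinant protein mixed with biotinylated BIM peptide and compound (2% DMSO), reacted 1 h. Anti-His and streptavidin-XL665 detection reagents then added and incubated 4 h at room temperature before HTRF read-out of binding inhibition.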

Another data set has as its target human CYP3A4 enzyme (Homo sapiens (Human), UniProt P08684). Description: CYP3A4 enzyme inhibitory activity (Vivid CYP3A4 Green screening kit). The following applies: read-out: CYP3A4 (IC50); Vivid CYP3A4 Green screening kit.
For a further data set, the target named is BCL2 (Homo sapiens (Human), UniProt P10415). The data set can be described thus: Molecular level activity test of anti-apoptotic protein BCL2 (HTRF, binding to Bim peptide). Conditions: HTRF, binding of BCL2 to Bim peptide; read-out: BCL2 nM (inhibitory activity, IC50). Put shortly:
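Compound (2% DMSO) was mixed with His-tagged recombinant BCL2 and biotinylated Bim peptide for 1 h. Detection used anti-His antibody plus streptavidin-XL665 for 4 h at room temperature, read by time-resolved fluorescence.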

A further data set concerns RS4; 11 cells. Description: Tumor proliferation inhibitory activity test (MTS) on RS4; 11. The format is cell-based. Conditions: Homo sapiens, RS4-11, 72 h, 3 days incubation. The procedure, abridged:
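RS4;11 cells were exposed to serially diluted compound (0.2% DMSO control) for 3 days at 37 °C/5% CO2, followed by MTS for 3–4 h. Read-out was OD490−OD690, and inhibition was calculated relative to the DMSO and blank wells.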

Another data set has as its target BCL-XL (Homo sapiens (Human), UniProt Q07817). The data set can be described thus: BCL-XL enzyme molecular level activity test (HTRF, binding to BIM peptide). The following applies: binding of BCL-XL to BIM peptide, read-out: BCL-XL inhibitory activity (IC50). Put shortly: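 HTRF binding assay: His-tagged recombinant BCL-XL with biotin-BIM peptide and compound (2% DMSO), 1 h. Anti-His and streptavidin-XL665 detection reagents added, 4 h at room temperature. Excitation 320 nm; 665/615 nm ratio reflects binding, with no-protein background and no-compound full-binding controls.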

BCL-XL, sequence (Q07817 whole entry): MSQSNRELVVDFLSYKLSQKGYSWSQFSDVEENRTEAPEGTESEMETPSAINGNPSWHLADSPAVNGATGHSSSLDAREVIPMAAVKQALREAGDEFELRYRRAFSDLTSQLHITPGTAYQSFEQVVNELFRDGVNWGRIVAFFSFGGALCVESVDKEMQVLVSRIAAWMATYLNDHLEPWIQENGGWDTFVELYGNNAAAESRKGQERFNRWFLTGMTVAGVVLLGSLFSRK
human CYP3A4 enzyme, sequence (P08684 whole entry): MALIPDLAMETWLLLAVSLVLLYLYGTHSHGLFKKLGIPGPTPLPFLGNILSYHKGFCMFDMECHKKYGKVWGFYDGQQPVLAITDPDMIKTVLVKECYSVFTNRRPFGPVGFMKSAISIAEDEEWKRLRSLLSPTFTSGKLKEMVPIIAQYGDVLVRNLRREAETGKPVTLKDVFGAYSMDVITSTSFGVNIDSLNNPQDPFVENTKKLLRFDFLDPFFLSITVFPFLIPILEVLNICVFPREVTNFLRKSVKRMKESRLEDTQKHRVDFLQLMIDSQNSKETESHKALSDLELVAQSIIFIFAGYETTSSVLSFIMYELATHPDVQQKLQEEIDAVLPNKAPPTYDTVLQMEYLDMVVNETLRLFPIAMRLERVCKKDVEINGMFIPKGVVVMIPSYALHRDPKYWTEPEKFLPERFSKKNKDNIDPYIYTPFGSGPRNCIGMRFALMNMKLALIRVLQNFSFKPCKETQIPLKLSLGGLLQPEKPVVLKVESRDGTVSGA

As to `COc1ccc(CN2CCN(C3CC4(CCN(c5cc(Oc6cnc7[nH]ccc7c6)c(C(=O)NS(=O)(=O)c6ccc(NCC7(F)CCN(C8COC8)CC7)c([N+](=O)[O-])c6)cn5)CC4)C3)C(c3ccccc3C(C)C)C2)cc1` (stereo not shown) [compound 053, 4-((1H-pyrrolo[2,3-b]pyrid-5-yl)oxy)-N-((4-(((4-fluoro-1-(oxocyclobut-3-yl)piperid-4-yl)methyl)amino)-3-nitrophenyl)sulfonyl)-6-(2-(2-(2-isopropylphenyl)-4-(4-methoxybenzyl)piperazin-1-yl)-7-azaspiro[3.5]non-7-yl) nicotinamide], the IC50 is less than 0.01 µM on BCL2 (G101V); less than 10 nM at BCL2 (D103Y); more than 20 µM on human CYP3A4 enzyme; less than 0.01 µM on BCL2; less than 0.0005 µM with RS4; 11 cells.

For `CC(C)c1ccccc1[C@@H]1CN(Cc2cnn(C)c2)CCN1C1CC2(CCN(c3cc(Oc4cnc5[nH]cc(F)c5c4)c(C(=O)NS(=O)(=O)c4ccc(NCC5(F)CCOCC5)c([N+](=O)[O-])c4)cc3F)CC2)C1` [compound 255, (R)-5-fluoro-2-((3-fluoro-1H-pyrrolo[2,3-b]pyrid-5-yl)oxy)-N-((4-(((4-fluorotetrahydro-2H-pyran-4-yl)methyl)amino)-3-nitrophenyl)sulfonyl)-4-(2-(2-(2-isopropylphenyl)-4-((1-methyl-1H-pyrazol-4-yl)methyl)piperazin-1-yl)-7-azaspiro[3.5]non-7-yl)benzamide], the IC50 at BCL2 (G101V) is less than 0.01 µM; at BCL2 (D103Y), less than 10 nM; on BCL-XL (values in nM), more than 500 nM; at BCL2, less than 0.01 µM; in the data set with RS4; 11 cells it was 0.0005 to 0.001 µM.

Take `COc1ccc(CN2CCN(C3CC4(CCN(c5ccc(C(=O)NS(=O)(=O)c6cc([N+](=O)[O-])c(NCC7CCOCC7)c7[nH]cnc67)c(Oc6cnc7[nH]ccc7c6)c5)CC4)C3)[C@H](c3ccccc3C(C)C)C2)cc1` [compound 260]: the IC50 at BCL2 (G101V) was less than 0.01 µM; at BCL2 (D103Y), less than 10 nM; on BCL-XL (values in nM) it was more than 500 nM; at BCL2 it was less than 0.01 µM; in the data set on RS4; 11 cells, less than 0.0005 µM.

As for `COc1ccc(CN2CCN(C3CC4(CCN(c5cc(Oc6cnc7[nH]ccc7c6)c(C(=O)NS(=O)(=O)c6cc([N+](=O)[O-])c(NCC7CCOCC7)c7c6OCCO7)cc5F)CC4)C3)[C@H](c3ccccc3C(C)C)C2)cc1` [compound 265, (R)-2-((1H-pyrrolo[2,3-b]pyrid-5-yl)oxy)-5-fluoro-4-(2-(2-(2-isopropylphenyl)-4-(4-methoxybenzyl)piperazin-1-yl)-7-azaspiro[3.5]non-7-yl)-N-((7-nitro-8-(((tetrahydro-2H-pyran-4-yl)methyl)amino)-2,3-dihydrobenzo[b][1,4]dioxin-5-yl)sulfonyl)benzamide], the IC50 at BCL2 (G101V) was less than 0.01 µM; at BCL2 (D103Y) it was less than 10 nM; at BCL-XL (values given in μM), more than 20000 nM; on BCL2, less than 0.01 µM; in the data set on RS4; 11 cells it was 0.0005 to 0.001 µM.

For the compound `COc1ccc(CN2CCN(C3CC4(CCN(c5cc(Oc6cnc7[nH]ccc7c6)c(C(=O)NS(=O)(=O)c6cc([N+](=O)[O-])c(NCC7CCOCC7)c7[nH]cnc67)cn5)CC4)C3)[C@H](c3ccccc3C(C)C)C2)cc1` [compound 267, (R)-4-((1H-pyrrolo[2,3-b]pyrid-5-yl)oxy)-6-(2-(2-(2-isopropylphenyl)-4-(4-methoxybenzyl)piperazin-1-yl)-7-azaspiro[3.5]non-7-yl)-N-((6-nitro-7-(((tetrahydro-2H-pyran-4-yl)methyl)amino)-1H benzo[d]imidazol-4-yl)sulfonyl) nicotinamide], the IC50 at BCL2 (G101V) is less than 0.01 µM; at BCL2 (D103Y), less than 10 nM; at BCL-XL (values in nM), more than 500 nM; at BCL2, less than 0.01 µM; in the data set on RS4; 11 cells it was 0.0005 to 0.001 µM.
